Experimental data published in patent US20240091242A1, “LIPIDS THAT REDUCE LUNG DAMAGE, IMPROVE PULMONARY FUNCTION AND DECREASE PRO-INFLAMMATORY CYTOKINES” (Signpath Pharma, Inc., priority 2021, published 2024).

Tested on: murine LPS ARDS model
Test: Overall efficacy in the murine LPS ARDS model
Format: in vivo, mouse
Experimental: To investigate the role of the lipids of the present invention, such as SPPCT-800, as a treatment for ARDS, the inventors used a murine LPS model to measure histologic changes, lung and body weights, oxygen blood saturations and other pulmonary function parameters, BALF protein and cell counts, and pro-inflammatory cytokine levels in the plasma and BALF.
In the ARDS group, mice received Escherichia coli O111:B4 lipopolysaccharide (50 μg in 0.05 mL saline, i.t.), while, in the control group, the animals received an instillation of saline (0.05 mL, i.t.). For intratracheal instillation, mice were slightly anesthetized with isoflurane.
The lipid SPPCT-800 was dissolved in water (low dose—2 mg/ml; high dose—20 mg/ml). For the 24-hour study, two treatment approaches were used. Mice received a single dose of SPPCT-800 (200 mg/kg, per gavage) as prevention (30 minutes before the LPS instillation), or as a single dose of either 20 mg/kg or 200 mg/kg as therapy (3-hour after the LPS instillation). For the 72-hour study, mice received a total of 8 treatments of SPPCT-800 (200 mg/kg) starting at 3-hour after the LPS instillation. Disease progression in mice was assessed by the evaluation of pulmonary functions, blood oxygen saturation, and body weight change. […]

In the case of CCCCCCCCCCCCCC(=O)OCC(COP(=O)([O-])OCC(COC(=O)CCC)OC(=O)CCC)OC(=O)CCCCCCCCCCCCC.CCCCCCCCCCCCCC(=O)OCC(COP(=O)([O-])OCC(COC(=O)CCC)OC(=O)CCC)OC(=O)CCCCCCCCCCCCC.[Mg+2] (centres unmarked) [SPPCT-800], the “efficacy against ARDS” value (all three studies, best results in the 72-hour study) was “effective” and the “severe damage to the lung” value (single dose of 200 mg/kg, given 30 minutes before LPS challenge) was “significantly reduces”.
